Entries after “also recorded” stand apart in the source; their conditions may differ.
Legend:
Src = assay: Cortactin tyrosine phosphorylation in pancreatic acini suprastimulated with 10 nM CCK (immunoprecipitation, 4G10 western blot); format: cell-based, mice
Protocol: (§1) Acini were harvested in a buffer containing 20 mM HEPES (pH 7.4), 120 mM NaCl, 5 mM KCl, 1 mM MgCl2, 1 mM CaCl2, 10 mM glucose, 10 mM sodium pyruvate, 0.1% bovine serum albumin, and 0.01% soybean trypsin inhibitor with 100 units/mL collagenase, as described elsewhere (Torgerson and McNiven, J. […] Viability prior to use was >95% by trypan blue exclusion. The harvested acini were used as described elsewhere (Torgerson and McNiven, J. Cell Sci., 111 (Pt. 19):2911-22 (1998)).
(§2) Acini or tissue were homogenized in a buffer containing 50 mM Tris (pH 7.2), 150 mM NaCl, 0.5 mM EDTA, 1 mM EGTA, 2 mM DTT, 1 mM sodium orthovanadate, 25 mM NaF, and 1% NP-40, using a protease inhibitor cocktail (Complete; Cat. # 1873580; Roche) to prevent proteolysis. […] After Western blotting using appropriate protocols and dilutions of antibodies ( 1/100000 for AB3, 1/1000 for 4G10, 1/500 for SC-18, 1/1000 for PY416, 1/5000 for Yes, 1/200 for H-12 (c-Src), 1/200 for fyn, and 1/200 for Lyn) as recommended by the manufacturer, band intensity was quantified using Adobe Photoshop 6.0, and backgrounds were subtracted for the appropriate lanes. […] Quantification was performed from two or more experiments. […]

pancreatic acini [1] = assay: Basal relocation of cortactin and actin in suprastimulated acini (immunofluorescence); format: cell-based, mice; conditions: 10 nM CCK
Protocol: as §1
(§3) Acini were plated on plain glass coverslips as described elsewhere (Torgerson and McNiven, J. Cell Sci., 111 (Pt. 19):2911-22 (1998)), fixed with 2% paraformaldehyde, and permeabilized with 0.6% Triton X-100. The acini were then blocked with 5% normal goat serum followed by incubation with the primary antibodies (4F11 diluted 1/1000, SC-18 diluted 1/300, or anti-Yes diluted 1/1000) for one hour at room temperature followed by washing and incubation with secondary antibodies ( 1/500) with or without rhodamine phalloidin (100 nM) for 30 minutes. The acini were then washed and mounted using Prolong gold. Acini with 6-12 cells were randomly chosen for imaging. The number of blebs was counted along with the number of cells, and expressed as bleb number per 100 cells. The final number expressed as mean±SEM was from at least three different experiments. […]

pancreatic acini [2] = assay: Suprastimulation-induced blebbing of acini (bleb number per 100 cells); format: cell-based, mice; conditions: 10 nM CCK, 94.2±4.1% without inhibitor, mean±SEM
Protocol: as §1, §3

Src-cortactin complex = assay: Dissociation of the Src-cortactin complex after 10 nM CCK (Src immunoprecipitation, blot for cortactin); format: cell-based, mice; conditions: 2 minutes, PP2 pre-incubation
Protocol: Acini were harvested in a buffer containing 20 mM HEPES (pH 7.4), 120 mM NaCl, 5 mM KCl, 1 mM MgCl2, 1 mM CaCl2, 10 mM glucose, 10 mM sodium pyruvate, 0.1% bovine serum albumin, and 0.01% soybean trypsin inhibitor with 100 units/mL collagenase, as described elsewhere (Torgerson and McNiven, J. Cell Sci., 111 (Pt. 19):2911-22 (1998)) were filtered through a 70 μm mesh and kept at 37° C. for two hours before use during which time these were pre-incubated with 20 μM of inhibitors (PP2 or SU6656), if necessary. Viability prior to use was >95% by trypan blue exclusion. The harvested acini were used as described elsewhere (Torgerson and McNiven, J. Cell Sci., 111 (Pt. 19):2911-22 (1998)).
as §2

[3] = system: suprastimulation-induced pancreatitis; assay: Caerulein-induced pancreatitis in vivo; set-up: species or system mice
From the text: Male 100-120 gm Sprauge Dawley (Harlan Laboratories, Indianapolis, Ind.) mice that were housed and fed under standard conditions were used. Caerulein, the CCK analog, was obtained from Research Plus (Bayonne, N.J.). Antibodies to phosphotyrosine (4G10) and cortactin (4F11) antibodies were obtained from Upstate (Charlottesville, Va.). Pan Src antibody (SC-18), Fyn (SC-16) and c-Src antibody H-12 were obtained from Santa Cruz (Santa Cruz, Calif.), and active Src (PY416), Yes and Lyn antibodies were obtained from Transduction Labs (Lexington, Ky.). Polyclonal antibody to cortactin (AB3) was produced as described elsewhere (Cao et al., Mol. Cell Biol., 23(6):2162-2170 (2003)). Secondary antibodies for immunofluorescence (Alexa 488 and Alexa 594) and Prolong gold were obtained from Invitrogen Corporation (Carlsbad, Calif.). Secondary antibodies for western blotting (goat anti-rabbit and goat anti-mouse HRP) were obtained from Affinity Bioreagents (Golden, Colo.). Collagenase type IV was obtained from Worthington Biochemical Corporation (Lakewood, N.J.). PP2 and SU6656 were obtained from Calbiochem (San Diego, Calif.) and were dissolved as a 1000× stock in DMSO. All other reagents were purchased from Sigma.
Animals (6 animals in each group) were given a single intraperitoneal injection of saline (control) or caerulein (20 μg/kg) in saline as described elsewhere (Bhagat et al., Gastroenterology, 122(1): 156-165 (2002)). After 6 hours, blood and tissue samples were harvested and frozen or fixed in 4% formaldehyde. When used, PP2 was dissolved in DMSO and given at a dose of 3 mg/kg in a 0.1-mL volume intraperitoneally 30 minutes before caerulein. Animals pretreated with vehicle were given DMSO only.
Five μm sections of paraffin-embedded pancreas and lung were stained with hematoxylin/eosin (H&E). For immunohistochemistry of pancreas, 5 μm sections were made from OCT embedded tissue, fixed with 4% paraformaldehyde, and immunostained as described herein. Serum amylase activity was measured colorimetrically using the Phadebas assay (Pharmacia Diagnostics, Portage, Mich.). Edema was measured by subtracting the dry weight from the wet weight and presented as a percentage of wet weight.
The results reported represent the mean±SEM of values obtained from three or more experiments and compared using Student's t test when the data consisted of only two groups or ANOVA when comparing three or more groups. If ANOVA indicated a significant difference, the data were analyzed by using Tukey's method as a post-hoc test for the difference between groups. A p value of 0.05 was considered significant.

Row | SMILES | cortactin phosphorylation (Src; acini pre-incubated with SU6656 at 10 μM) | basal relocation of cortactin and actin (pancreatic acini [1]; SU6656 10 μM) | blebbing (pancreatic acini [2]; SU6656 10 μM) [%] | cortactin phosphorylation (Src; acini pre-incubated with PP2 at 20 μM) | dissociation of the Src-cortactin complex (Src-cortactin complex) | basal relocation of cortactin and actin (pancreatic acini [1]; PP2 20 μM) | blebbing (pancreatic acini [2]; PP2 20 μM) [%] | cortactin phosphorylation in pancreas in vivo ([3]; 3 mg/kg PP2 intraperitoneally 30 minutes before 20 μg/kg caerulein, preliminary data) | increase in serum amylase over controls ([3]; PP2 3 mg/kg ip 30 minutes before caerulein 20 μg/kg, 6 hours, CER+Veh 4.8±0.5 fold, p <0.02) [fold] | pancreatic edema as measured by water content ([3]; PP2 3 mg/kg ip 30 minutes before caerulein 20 μg/kg, 6 hours, CER+Veh 81.1±0.8%, control 75.1±0.5%, p<0.05) [%] | morphology of the pancreas (vacuolation, blebbing-like fragmentation, apoptosis, interstitial edema, inflammatory cells; H&E) ([3]; PP2 3 mg/kg ip 30 minutes before caerulein, 6 hours) | basolateral relocation of actin and cortactin in pancreas cryosections ([3]; PP2 3 mg/kg prophylactically)
1 | CN(C)S(=O)(=O)c1ccc2c(c1)/C(=C/c1cc3c([nH]1)CCCC3)C(=O)N2 [SU6656] | completely prevented cortactin phosphorylation | prevented the basal relocation of cortactin | 21.0±6.0 |  |  |  |  |  |  |  |  | 
2 | CC(C)(C)n1nc(-c2ccc(Cl)cc2)c2c(N)ncnc21 [PP2] |  |  |  | completely prevented cortactin phosphorylation | prevented | prevented this basal relocation of cortactin; also recorded: prevented the basal relocation of cortactin | 16.9±6.0 | adequate to inhibit cortactin phosphorylation | 2.4±0.2 | 76.7±0.6 | dramatically prevented these phenomena | prevented this basolateral relocation

Reference: patent US20100160339A1, “TREATING PANCREATITIS” (MAYO FOUNDATION FOR MEDICAL EDUCATION AND RESEARCH, priority 2007, published 2010)
